{"source": "ChEMBL document CHEMBL1132513", "about": "“Manipulation of the C(22)-C(27) region of rapamycin: stability issues and biological implications” (Bioorg Med Chem Lett, 1999)", "key": {"[1]": {"test": "Half life was determined", "format": "ADME", "conditions": "rat"}, "Mus musculus [2]": {"system": "Mus musculus", "test": "Ability to prevent transplantation rejection in vivo in mouse skin graft model", "format": "functional"}, "[3]": {"test": "Ability to bind to FK506 binding protein via its inhibition of peptidyl prolyl cis-trans isomerase activity (PPIase) inherent to FKBP"}, "[4]": {"test": "The activity in the LAF assay is best expressed as a ratio of the rapamycin IC50 (1-9 nM) /analogue IC50 (R/A)", "format": "functional"}, "Mus musculus [5]": {"species": "Mus musculus", "test": "In vitro ability to inhibit lymphoproliferation (LAF) in vitro using cells from the thymus of normal BALB/c mice", "format": "functional"}}}
{"compound": "CO[C@H]1C[C@@H]2CC[C@@H](C)[C@@](O)(O2)C(=O)C(=O)N2CCCCC2(C)C(=O)O[C@H]([C@H](C)C[C@H]2CC[C@H](O)[C@@H](OC)C2)CC(=O)[C@H](C)/C=C(\\C)[C@@H](O)[C@@H](OC)C(=O)[C@H](C)C[C@H](C)/C=C/C=C/C=C/1C", "note": "(stereo not given in full)", "values": [{"measurement": "half-life", "setting": "[1]", "value": 38.4, "unit": "h"}, {"measurement": "Survival", "setting": "Mus musculus [2]", "value": 9.33}, {"measurement": "IC50", "setting": "[3]", "value": 95, "unit": "nM"}, {"measurement": "Ratio", "setting": "[4]", "value": 0.42}, {"measurement": "IC50", "setting": "Mus musculus [5]", "value": 23, "unit": "nM"}]}
{"compound": "CO[C@H]1C[C@@H]2CC[C@@H](C)[C@@](O)(O2)C(=O)C(=O)N2CCCCC2(C)C(=O)O[C@H]([C@H](C)C[C@H]2CC[C@H](O)[C@@H](OC)C2)CC(O)[C@H](C)/C=C(\\C)[C@@H](O)[C@@H](OC)C(=O)[C@H](C)C[C@H](C)/C=C/C=C/C=C/1C", "note": "(stereo not given in full)", "values": [{"measurement": "half-life", "setting": "[1]", "value": 14.6, "unit": "h"}, {"measurement": "Survival", "setting": "Mus musculus [2]", "value": 7}, {"measurement": "IC50", "setting": "[3]", "value": 150, "unit": "nM"}, {"measurement": "Ratio", "setting": "[4]", "value": 0.23}, {"measurement": "IC50", "setting": "Mus musculus [5]", "value": 9.9, "unit": "nM"}]}
{"compound": "CO[C@H]1C[C@@H]2CC[C@@H](C)[C@@](O)(O2)C(=O)C(=O)N2CCCC[C@H]2C(=O)O[C@H]([C@H](C)C[C@@H]2CC[C@@H](O)[C@H](OC)C2)CC(=O)[C@H](C)/C=C(\\C)[C@@H](O)[C@@H](OC)C(=O)[C@H](C)C[C@H](C)/C=C/C=C/C=C/1C", "note": "[SIROLIMUS]", "values": [{"measurement": "half-life", "setting": "[1]", "value": 13, "unit": "h"}, {"measurement": "Skin Graft Survival", "setting": "Mus musculus [2]", "value": 12}, {"measurement": "IC50", "setting": "[3]", "value": 15, "unit": "nM"}, {"measurement": "IC50", "setting": "Mus musculus [5]", "value": 3, "unit": "nM"}]}
{"compound": "CO[C@H]1C[C@@H]2CC[C@@H](C)[C@@](O)(O2)C(=O)C(=O)N2CCCC[C@H]2C(=O)O[C@H](C[C@H](O)[C@H](C)C[C@@H]2CC[C@@H](O)[C@H](OC)C2)[C@H](C)/C=C(\\C)[C@@H](O)[C@@H](OC)C(=O)[C@H](C)C[C@H](C)/C=C/C=C/C=C/1C", "values": [{"measurement": "half-life", "setting": "[1]", "value": 21.6, "unit": "h"}, {"measurement": "Survival", "setting": "Mus musculus [2]", "value": 7}, {"measurement": "IC50", "setting": "[3]", "value": 310, "unit": "nM"}, {"measurement": "Ratio", "setting": "[4]", "value": 0.42}, {"measurement": "IC50", "setting": "Mus musculus [5]", "value": 16, "unit": "nM"}]}
{"compound": "CO[C@H]1C[C@@H]2CC[C@@H](C)[C@@](O)(O2)C(=O)C(=O)N2CCCC[C@H]2C(=O)O[C@H]([C@H](C)C[C@H]2CC[C@H](O)[C@@H](OC)C2)C[C@@H](OC(C)=O)[C@H](C)/C=C(\\C)[C@@H](O)[C@@H](OC)C(=O)[C@H](C)C[C@H](C)/C=C/C=C/C=C/1C", "values": [{"measurement": "half-life", "setting": "[1]", "value": 34, "unit": "h"}, {"measurement": "Ratio", "setting": "[4]", "value": 0.08}, {"measurement": "IC50", "setting": "Mus musculus [5]", "value": 99, "unit": "nM"}]}
{"compound": "CO[C@H]1C[C@@H]2CC[C@@H](C)[C@@](O)(O2)C(=O)C(=O)N2CCCC[C@H]2C(=O)O[C@H]([C@H](C)C[C@H]2CC[C@H](O)[C@@H](OC)C2)CC(O)[C@H](C)/C=C(\\C)[C@@H](O)[C@@H](OC)C(=O)[C@H](C)C[C@H](C)/C=C/C=C/C=C/1C", "note": "(stereo not given in full)", "values": [{"measurement": "half-life", "setting": "[1]", "value": 17.5, "unit": "h"}, {"measurement": "Skin Graft Survival", "setting": "Mus musculus [2]", "value": 8.5}, {"measurement": "IC50", "setting": "[3]", "value": 22, "unit": "nM"}, {"measurement": "Ratio", "setting": "[4]", "value": 1.3}, {"measurement": "IC50", "setting": "Mus musculus [5]", "value": 3.7, "unit": "nM"}]}
{"compound": "CCC12CCCCN1C(=O)C(=O)[C@]1(O)O[C@@H](CC[C@H]1C)C[C@H](OC)/C(C)=C/C=C/C=C/[C@@H](C)C[C@@H](C)C(=O)[C@H](OC)[C@H](O)/C(C)=C/[C@@H](C)C(=O)C[C@@H]([C@H](C)C[C@H]1CC[C@H](O)[C@H](OC)C1)OC2=O", "note": "(stereo not given in full)", "values": [{"measurement": "IC50", "setting": "[3]", "value": 950, "unit": "nM"}, {"measurement": "Ratio", "setting": "[4]", "value": 0.07}, {"measurement": "IC50", "setting": "Mus musculus [5]", "value": 140, "unit": "nM"}]}
